The record followed here is BindingDB's records for doi:10.1021/acschembio.6b00304 (Icahn School of Medicine At Mount Sinai, 2016).

The term IC50 denotes the point on the concentration scale where inhibition reaches its midpoint. Lower therefore signals inhibition by little substance.

This assay concerns the target T1, Solute carrier family 2, facilitated glucose transporter member 1 (Homo sapiens, UniProt P11166).
T1 sequence (P11166 whole entry): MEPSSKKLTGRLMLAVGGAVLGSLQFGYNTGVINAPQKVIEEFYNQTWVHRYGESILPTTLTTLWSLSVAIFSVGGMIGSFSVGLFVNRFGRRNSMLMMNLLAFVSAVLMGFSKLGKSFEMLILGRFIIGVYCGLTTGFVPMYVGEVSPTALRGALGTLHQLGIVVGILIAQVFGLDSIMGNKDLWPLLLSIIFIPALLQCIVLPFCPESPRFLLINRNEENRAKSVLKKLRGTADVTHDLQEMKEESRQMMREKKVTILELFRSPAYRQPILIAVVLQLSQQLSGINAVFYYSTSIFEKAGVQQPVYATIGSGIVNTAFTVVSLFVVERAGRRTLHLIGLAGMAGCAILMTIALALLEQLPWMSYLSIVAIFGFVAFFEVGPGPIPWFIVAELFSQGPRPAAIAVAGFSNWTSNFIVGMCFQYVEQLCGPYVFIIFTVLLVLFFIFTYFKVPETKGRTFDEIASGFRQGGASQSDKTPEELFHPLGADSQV
Description: [3H]-2-Deoxy-D-glucose ([3H]-2-DG) Uptake Assay. How it is done: The stably transfected CHO cells were seeded in poly 24-well plates and were grown to 80−90% confluence. […] The known hGLUT1 inhibitor phloretin (Accela ChemBio, San Diego, CA) was included as a positive control. […] Compounds were obtained from the National Cancer Institute (NCI) or purchased from commercial vendors. The reaction was terminated by washing cells twice with ice-cold PBS, followed by the addition of 200 μL of lysis buffer (0.1% (w/v) SDS, 0.1 N NaOH).Intracellular radioactivity was determined by scintillation counting.
`O=c1[nH]ncc2c1Sc1cn[nH]c(=O)c1S2` [PUG-7] gave an IC50 of 11.8 µM.
As for `O=C(CCc1ccc(O)cc1)c1c(O)cc(O)cc1O[C@H]1O[C@@H](CO)[C@H](O)[C@@H](O)[C@@H]1O` [PUG-5 (Phlorizin)], the half-maximal inhibitory concentration (IC50) came to 23 µM.
For the compound `NNc1nc(NCc2ccco2)c2nc[nH]c2n1` [PUG-3], half-maximal inhibition (IC50) required 27.1 µM.
For `c1ccc(CNc2ncnc3n[nH]nc23)cc1` [PUG-4] the value was 30 µM; for `CC[C@@H]1O[C@H](c2cc(O)cc(/C=C/c3ccc(O)c(O)c3)c2)[C@@H](O)[C@H](O)[C@H]1O` [PUG-6], 37.9 µM.
On to `O=c1[nH][nH]c(=O)c2[nH]cnc12` [PUG-8], for which the half-inhibitory concentration (IC50) was found to be 22.5 µM.
The compound `O=c1[nH]c(=O)c2ncn(-c3ccccc3)c2[nH]1` [PUG-2] showed a 50% inhibitory concentration (IC50) of 58.6 µM.
